This note sets out measurements from US20240182445A1 (ONO PHARMACEUTICAL CO., LTD., priority 2019, published 2024).

One test deals with T1, human TREK-1 (Homo sapiens, UniProt O95069).
T1 construct: expressed in transfected cells
T1 sequence (O95069 1-426): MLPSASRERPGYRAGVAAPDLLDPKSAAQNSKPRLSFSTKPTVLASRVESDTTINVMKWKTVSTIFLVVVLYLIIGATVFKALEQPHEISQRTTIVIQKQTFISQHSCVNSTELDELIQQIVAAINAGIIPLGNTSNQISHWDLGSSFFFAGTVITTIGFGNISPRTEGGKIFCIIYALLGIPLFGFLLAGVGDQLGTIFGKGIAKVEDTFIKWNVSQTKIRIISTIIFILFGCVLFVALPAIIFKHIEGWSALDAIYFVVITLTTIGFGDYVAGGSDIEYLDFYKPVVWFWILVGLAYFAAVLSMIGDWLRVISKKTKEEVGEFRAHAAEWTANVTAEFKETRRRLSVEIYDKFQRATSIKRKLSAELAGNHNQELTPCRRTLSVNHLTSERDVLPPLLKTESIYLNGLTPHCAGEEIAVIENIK
Nature of the test: TREK-1 Thallium (Tl+) flux assay, Method 1. Type of test: cell-based. The conditions noted are these: TREK-1 Thallium (Tl+) flux assay; no *^12 (Method 2) mark on these rows. The method, boiled down:
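Readout: Thallos fluorescence ratio, taken 25 s post-thallium relative to the pre-thallium baseline average, then converted to % inhibition. Cells were CHO-K1 stably expressing human TREK-1, dye-loaded and exposed to test compound (vehicle 0.3% DMSO) for 10 min prior to thallium stimulation.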
The compound `Cc1cc(C#Cc2ccccc2)cnc1NC(=O)c1c(Cl)cnn1-c1ccc2c(c1)OCO2` [Compound 283, 1-(benzol[d][1,3]dioxol-5-yl)-4-chloro-N-(3-methyl-5-(phenylethynyl)pyridin-2-yl)-1H-pyrazole-5-carboxamide] registered an IC50 of 490 nM. This lies in the sub-micromolar range.

Compound `CCC(=O)N1CCCC(Cn2ncc(Cl)c2C(=O)Nc2ncc(C#Cc3ccc(F)cc3)cc2C)C1` (stereo not drawn) [Compound 355, 4-chloro-N-(5-((4-fluorophenyl)ethynyl)-3-methylpyridin-2-yl)-1-((1-propionylpiperidin-3-yl)methyl)-1H-pyrazole-5-carboxamide] gave an IC50 of 850 nM.

Compound `CC(=O)N1CC[C@@H](n2ncc(Cl)c2C(=O)Nc2ncc(C#Cc3ccccc3)cc2F)C1` [Compound 203, (R)-1-(1-acetylpyrrolidin-3-yl)-4-chloro-N-(3-fluoro-5-(phenylethynyl)pyridin-2-yl)-1H-pyrazole-5-carboxamide] had an IC50 of 310 nM. Against the preceding compound, the IC50 is about 2.7-fold lower.

In the case of `Cc1cc(C#Cc2ccc(F)cc2)cnc1NC(=O)c1c(Cl)cnn1C1CC2(CCN(C(=O)C(C)C)C2)C1` (stereo not drawn) [Compound 332, 4-chloro-N-{5-[(4-fluorophenyl)ethynyl]-3-methylpyridin-2-yl}-1-[6-(2-methylpropanoyl)-6-azaspiro[3.4]octan-2-yl]-1H-pyrazole-5-carboxamide], half-maximal inhibition (IC50) required 660 nM.

`Cc1cc(C#Cc2ccccc2)cnc1NC(=O)c1c(Cl)cnn1CC1(C)CCN(C(=O)OC(C)(C)C)CC1` [Compound 301, tert-butyl 4-((4-chloro-5-((3-methyl-5-(phenylethynyl)pyridin-2-yl)carbamoyl)-1H-pyrazol-1-yl)methyl)-4-methylpiperidine-1-carboxylate] gave an IC50 of 540 nM.

On to `Cc1cc(C#Cc2ccccc2)cnc1NC(=O)c1c(Cl)cnn1CC1CC1` [Compound 278, 4-chloro-1-(cyclopropylmethyl)-N-(3-methyl-5-(phenylethynyl)pyridin-2-yl)-1H-pyrazole-5-carboxamide], for which half-maximal inhibition (IC50) required 490 nM.

The test is the same for the next values; noted with them: TREK-1 Thallium (Tl+) flux assay; values without footnote *12 are Method 1.
Take `O=C(Nc1ncc(C#Cc2ccccc2)cc1F)c1c(Cl)cnn1C1CCN(C(=O)C(F)(F)F)CC1` [Compound 54, 4-chloro-N-(3-fluoro-5-(phenylethynyl)pyridin-2-yl)-1-(1-(2,2,2-trifluoroacetyl)piperidin-4-yl)-1H-pyrazole-5-carboxamide]: inhibition was half-maximal at 140 nM (IC50).

`Cc1cc(C#Cc2cccc(F)c2)cnc1NC(=O)c1c(Cl)cnn1CC1CCN(C(=O)C2COCCO2)CC1` (stereo not drawn) [Compound 104, 1-((1-(1,4-dioxane-2-carbonyl)piperidin-4-yl)methyl)-4-chloro-N-(5-((3-fluorophenyl)ethynyl)-3-methylpyridin-2-yl)-1H-pyrazole-5-carboxamide] displayed an IC50 of 190 nM. The IC50 values of the last two compounds are within 1.5-fold of each other.

The compound `Cc1cc(C#Cc2ccccc2)cnc1NC(=O)c1c(Cl)cnn1CC1(F)CCN(C(=O)OC(C)(C)C)CC1` [Compound 155, tert-butyl 4-((4-chloro-5-((3-methyl-5-(phenylethynyl)pyridin-2-yl)carbamoyl)-1H-pyrazol-1-yl)methyl)-4-fluoropiperidine-1-carboxylate] showed an IC50 of 240 nM.

As to `O=C(Nc1c(F)cc(C#Cc2ccccc2)cc1F)c1c(Cl)cnn1C[C@@H]1CCOC1` [Compound 161], the midpoint of inhibition, the IC50, lay at 260 nM.

For the compound `Cc1cc(C#Cc2cccs2)cnc1NC(=O)c1c(Cl)cnn1C1CC2(C1)CN(C(=O)C(C)C)C2` [Compound 46, 4-chloro-1-(2-isobutyryl-2-azaspiro[3.3]heptan-6-yl)-N-(3-methyl-5-(thiophen-2-ylethynyl)pyridin-2-yl)-1H-pyrazole-5-carboxamide], half-maximal inhibition (IC50) was put at 130 nM.

In turn, `CC(=O)N[C@H]1C[C@@H](n2ncc(Cl)c2C(=O)Nc2ncc(C#Cc3ccccc3)cc2F)C1` [Compound 94, 1-(cis-3-acetamidocyclobutyl)-4-chloro-N-(3-fluoro-5-(phenylethynyl)pyridin-2-yl)-1H-pyrazole-5-carboxamide] displayed an IC50 of 180 nM.

Compound `Cc1cc(C#Cc2cccc(F)c2)cnc1NC(=O)c1c(Cl)cnn1CC1CCN(C(=O)C2CC2)CC1` [Compound 174, 4-chloro-1-((1-(cyclopropanecarbonyl)piperidin-4-yl)methyl)-N-(5-((3-fluorophenyl)ethynyl)-3-methylpyridin-2-yl)-1H-pyrazole-5-carboxamide] showed a 50% inhibitory concentration (IC50) of 270 nM.

`Cc1cc(C#Cc2cccs2)cnc1NC(=O)c1c(Cl)cnn1C1CCN(C(=O)C2CC2)CC1` [Compound 63, 4-chloro-1-(1-(cyclopropanecarbonyl)piperidin-4-yl)-N-(3-methyl-5-(thiophen-2-ylethynyl)pyridin-2-yl)-1H-pyrazole-5-carboxamide] returned an IC50 of 150 nM.

Regarding `CC(=O)N1CC[C@H](n2ncc(Cl)c2C(=O)Nc2ncc(C#Cc3ccccc3)cc2F)[C@@H](F)C1` [Compound 154, 1-((3S,4S)-1-acetyl-3-fluoropiperidin-4-yl)-4-chloro-N-(3-fluoro-5-(phenylethynyl)pyridin-2-yl)-1H-pyrazole-5-carboxamide], it took 240 nM to reach half-maximal inhibition (IC50).

For the compound `CC(=O)N1CC[C@H](Cn2ncc(Cl)c2C(=O)Nc2ncc(C#Cc3ccccc3)cc2C)[C@H](F)C1` [Compound 82, 1-(((3S,4R)-1-acetyl-3-fluoropiperidin-4-yl)methyl)-4-chloro-N-(3-methyl-5-(phenylethynyl)pyridin-2-yl)-1H-pyrazole-5-carboxamide], 160 nM corresponded to half-maximal inhibition (IC50).

`CC(=O)N1CC2(CC(n3ncc(Cl)c3C(=O)Nc3ncc(C#Cc4ccccc4)cc3F)C2)C1` [Compound 113, 1-(2-acetyl-2-azaspiro[3.3]heptan-6-yl)-4-chloro-N-(3-fluoro-5-(phenylethynyl)pyridin-2-yl)-1H-pyrazole-5-carboxamide] showed an IC50 of 200 nM.

As for `CC(=O)NC1CCCC(n2ncc(Cl)c2C(=O)Nc2ncc(C#Cc3ccccc3)cc2C)C1` (stereo not drawn) [Compound 107, 1-(3-acetamidocyclohexyl)-4-chloro-N-(3-methyl-5-(phenylethynyl)pyridin-2-yl)-1H-pyrazole-5-carboxamide hydrofluoride], half-maximal inhibition (IC50) was put at 190 nM. The IC50 values of the last two compounds are within 1.5-fold of each other.

As for `CC1(C(=O)N2CCC(n3ncc(Cl)c3C(=O)Nc3ncc(C#Cc4ccccc4)cc3F)CC2)CCC1` [Compound 112, 4-chloro-N-(3-fluoro-5-(phenylethynyl)pyridin-2-yl)-1-(1-(1-methylcyclobutane-1-carbonyl)piperidin-4-yl)-1H-pyrazole-5-carboxamide], half-maximal inhibition (IC50) required 200 nM. This IC50 and that of the compound before are within 1.5-fold of each other.

For the compound `CC(C)C(=O)N[C@H]1CC[C@H](n2ncc(Cl)c2C(=O)Nc2ncc(C#Cc3ccccc3)cc2F)CC1` [Compound 117], the half-maximal inhibitory concentration (IC50) is 200 nM.

Staying with this test, now noted: read-out: Tl^+ Assay % inhibition at 30 uM (Minus value indicates activation of TREK-1); at 30 uM; CHO-K1 cells stably expressing human TREK-1; minus = activation.
Turning to `Cc1cc(C#Cc2ccc(F)cc2)cnc1NC(=O)c1nn(CCC2CCN(C(=O)C(C)C)CC2)cc1Cl` [Compound 446, 4-chloro-N-(5-((4-fluorophenyl)ethynyl)-3-methylpyridin-2-yl)-1-(2-(1-isobutyrylpiperidin-4-yl)ethyl)-1H-pyrazole-3-carboxamide], the inhibition at 30 µM is -108%.
